Test results from patent EP3521435A1, “A HIGH STRINGENCY SELECTION SYSTEM FOR PROTEIN EXPRESSION IN PROLINE-AUXOTROPHIC CELLS” (Bayer AG, priority 2018, dated 2019).
Read-outs that look alike come from different tables or passages of the source.

Key:
[1] = tested on: CHO-K1 cells; experiment: Flow cytometric analysis of GFP expression (MFI, high fluorescing cells) in stably selected cell populations; type: cell-based, Chinese hamster; settings: day 20 post-transfection, pJF1556
Description: (§1) To efficiently test the impact of different procedures on improving selection stringency, experimental testing in stable cell populations was performed. As test molecules, enhanced green fluorescent protein (GFP) as well as a human IgG1 were chosen. CHO-K1 cells adapted to growth in suspension in defined medium were obtained from SAFC and cultivated in EX-CELL CD CHO Fusion medium (SAFC 14365C). Custom-made EX-CELL CD CHO Fusion medium without L-Proline (Pro) and without L-Ornithine (Orn) ("proline-free medium") was obtained from SAFC. The expression vector system was based on modified versions of "CET 1019 AS-puro-SceI" and "CET 1019 AD-puro-SceI" for GFP and human IgG1, respectively, from Merck-Millipore, containing the Puromycin selection marker (Puromycin N-acetyl-transferase) known to exert a high selection stringency. To minimize variations in cell populations derived from using different transfections or different vectors, the first series of experiments were conducted using vectors into which a P5CS expression cassette was cloned upstream of a UCOE element, in addition to the Puromycin selection marker present downstream of a gene of interest. This way, it was possible to pool different transfections using the same vector to obtain a common starting point, and split the mixture according to different selection conditions, minimizing any variations that are not due to selection conditions themselves. Expression of long and short isoform of murine P5CS (Protein: Delta-1-pyrroline-5-carboxylate synthase; Gene: Aldh18a1; UniProtKB accession number: Q9Z110-1 & Q9Z110-2) was driven by a SV40 promoter. A SV40 polyadenylation sequence was used at the 3' end of the gene. More details can be found in Table 1. Typically, CHO cells were cultivated in EX-CELL CD CHO Fusion medium containing 6 mM GlutaMAX (Thermo Fisher, 35050-38) ("CD-Fusion medium") at 37 °C with 5% CO2. Cells were grown to logarithmic phase under shaking conditions for transfections. 1e7 cells/cuvette were transfected using nucleofection (Amaxa Nucleofector II, following the manufacturer's recommendations) with 5 µg of linearized DNA. After transfection, cells were taken up in 1 ml medium and transferred into 1 well of a 6 well microtiter plate (MTP) already containing 1 ml medium. The cells were incubated for 24 h without shaking, after which 9 ml medium were added and cells were washed (either in standard or proline-free medium). Multiple transfections were pooled, if applicable. Cells were adjusted to 2e5 viable cells/ml and 10 ml were transferred to T-25 flasks. Reference cell populations were selected using 10 µg/ml Puromycin in CD-Fusion medium. For P5CS-based selection, EX-CELL CD CHO Fusion medium (custom-made, SAFC) containing 6 mM GlutaMAX without proline and without ornithine was used ("proline-free" or "CD-Fusion w/o Pro" medium), with or without additional selection pressure.
(§2) Cell viability of the different populations was monitored over time. As soon as cell populations appeared to recover from selection pressure, cells were transferred to Shake Flask or TubeSpins for expansion in suspension under shaking conditions. Subsequently, stable cell populations transfected with IgG were seeded at 2e5 viable cells/ml for batch fermentation without selection pressure (i.e. standard CD-Fusion medium containing proline and no other selective agents). The cells were cultivated for 5-10 days, viable cell densities and productivity were monitored over time. IgG titers were determined using Poros A-HPLC method. Typically, final batch titers were recorded at a time point at which majority of cultures had around 70% viability. Stable cell populations transfected with GFP vector were subjected to analysis by flow cytometry using Guava easyCyte 8HT Benchtop Flow Cytometer (Millipore). 250 µl of cell culture were transferred to 96 MTP and washed with PBS. Dead cells were excluded from analysis using propidium iodide (PI). […]

[2] = tested on: CHO-K1 cells; experiment: Batch fermentation in shake flasks of human IgG1 expressing stable cell populations (Poros A-HPLC titer, viable cell density, viability); type: cell-based, Chinese hamster; settings: human IgG1, pJF1577, non-selecting conditions
Description: as §1, §2

[3] = tested on: CHO-K1 cells; experiment: Cell viability post-transfection of transfected cell populations under selection conditions; type: cell-based, Chinese hamster
Description: as §1, §2

[4] = tested on: CHO-S cells
Description: CHO-S cells (Thermo Fisher Scientific, A1155701) were passaged according to the manufacturer's recommendations at 37 °C and 5% CO2 in CD-CHO medium (Thermo Fisher Scientific , 10743029) containing 8 mM GlutaMAX. […] Viable cell densities and viabilities were recorded daily.

[5] = CD-Fusion w/o Pro + 0.1 mM A2C + 10 µg/ml Puromycin
[6] = CD-Fusion w/o Pro + 0.25 mM A2C
[7] = Day 1, Proline-free Medium + 0,5mM L-Prolin
[8] = Day 1, Proline-free Medium + 0,25mM L-Prolin
[9] = Day 1, Proline-free Medium + 1,0mM L-Prolin
[10] = Day 1, Proline-free Medium + 2,5mM L-Prolin
[11] = Day 2, Proline-free Medium + 0,5mM L-Prolin
[12] = Day 2, Proline-free Medium + 0,25mM L-Prolin
[13] = Day 2, Proline-free Medium + 1,0mM L-Prolin
[14] = Day 2, Proline-free Medium + 2,5mM L-Prolin
[15] = Day 3, Proline-free Medium + 0,5mM L-Prolin
[16] = Day 3, Proline-free Medium + 0,25mM L-Prolin
[17] = Day 3, Proline-free Medium + 1,0mM L-Prolin
[18] = Day 3, Proline-free Medium + 2,5mM L-Prolin
[19] = Day 6, Proline-free Medium + 0,5mM L-Prolin
[20] = Day 6, Proline-free Medium + 0,25mM L-Prolin
[21] = Day 6, Proline-free Medium + 1,0mM L-Prolin
[22] = Day 6, Proline-free Medium + 2,5mM L-Prolin

## O=C(O)[C@@H]1CCN1 [A2C, L-Azetidine-2-carboxylic acid]
[1]; CD-Fusion w/o Pro + 0.1 mM A2C
  Frequency of high fluorescing cells: 7.1%
  Median Fluorescence Intensity (MFI) (yellow): 5743
[1]; [5]
  Frequency of high fluorescing cells: 13.6%
  Median Fluorescence Intensity (MFI) (yellow): 9448
[1]; [6]
  Frequency of high fluorescing cells: 7.1%
  Median Fluorescence Intensity (MFI) (yellow): 7578
[2]; selected in CD-Fusion w/o Pro + 0.1 mM A2C + 10 µg/ml Puromycin
  Batch titer day 7: 82 mg/L
[2]; selected in CD-Fusion w/o Pro + 0.1 mM A2C
  Batch titer day 7: 135 mg/L
[2]; selected in CD-Fusion w/o Pro + 0.25 mM A2C + 10 µg/ml Puromycin
  Batch titer day 7: 145 mg/L
[2]; selected in CD-Fusion w/o Pro + 0.25 mM A2C
  Batch titer day 7: 166 mg/L
[2]; selected in CD-Fusion w/o Pro + 0.5 mM A2C + 10 µg/ml Puromycin
  Batch titer day 7: 34 mg/L
[2]; selected in CD-Fusion w/o Pro + 0.5 mM A2C
  Batch titer day 7: 166 mg/L
[3]; MOCK, CD-Fusion w/o Pro + 0.5 mM A2C + 10 µg/ml Puromycin
  Viability on day 13 post-transfection: 15%
[3]; pJF1556, CD-Fusion w/o Pro + 0.1 mM A2C
  Viability on day 13 post-transfection: 85%
[3]; pJF1556, CD-Fusion w/o Pro + 0.1 mM A2C + 10 µg/ml Puromycin
  Viability on day 13 post-transfection: 62%
[3]; pJF1556, CD-Fusion w/o Pro + 0.25 mM A2C
  Viability on day 13 post-transfection: 70%
[3]; pJF1556, CD-Fusion w/o Pro + 0.25 mM A2C + 10 µg/ml Puromycin
  Viability on day 13 post-transfection: 22%
[3]; pJF1556, CD-Fusion w/o Pro + 0.5 mM A2C
  Viability on day 13 post-transfection: 21%
[3]; pJF1556, CD-Fusion w/o Pro + 0.5 mM A2C + 10 µg/ml Puromycin
  Viability on day 13 post-transfection: 21%

## O=C(O)[C@@H]1CCCN1 [L-Prolin, L-Proline]
[4]; [7]
  Viability: 98,2
  Viable Cell Conc.: 3,7E+05
[4]; [8]
  Viability: 95,6
  Viable Cell Conc.: 3,5E+05
[4]; [9]
  Viability: 100,0
  Viable Cell Conc.: 3,6E+05
[4]; [10]
  Viability: 99,3
  Viable Cell Conc.: 3,3E+05
[4]; [11]
  Viability: 99,7
  Viable Cell Conc.: 6,3E+05
[4]; [12]
  Viability: 98,1
  Viable Cell Conc.: 5,7E+05
[4]; [13]
  Viability: 99,7
  Viable Cell Conc.: 5,6E+05
[4]; [14]
  Viability: 97,5
  Viable Cell Conc.: 4,9E+05
[4]; [15]
  Viability: 99,5
  Viable Cell Conc.: 1,2E+06
[4]; [16]
  Viability: 99,6
  Viable Cell Conc.: 9,1E+05
[4]; [17]
  Viability: 99,2
  Viable Cell Conc.: 1,1E+06
[4]; [18]
  Viability: 99,8
  Viable Cell Conc.: 1,1E+06
[4]; [19]
  Viability: 99,9
  Viable Cell Conc.: 3,8E+06
[4]; [20]
  Viability: 98,2
  Viable Cell Conc.: 1,3E+06
[4]; [21]
  Viability: 99,5
  Viable Cell Conc.: 6,6E+06
[4]; [22]
  Viability: 99,7
  Viable Cell Conc.: 6,3E+06
